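Cultured in 96-well plates, cells were exposed to test compound for 48 hours across five concentrations. GI50 = concentration required for 50% inhibition of growth.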 Activity calls are given as the source filed them. Cut-off read from the data, not from the text of the source: active = GI50 up to about 1.1 µM and inactive = higher.
How the values were obtained:
Test in all cases: growth of human tumour cells (NCI), 48 h
OVCAR-4 = system: OVCAR-4
DMS-273 = system: DMS-273
OVCAR-8 = system: OVCAR-8
COLO 205 = system: COLO 205
786-0 = system: 786-0
IGROV-1 = system: IGROV-1
CAKI-1 = system: CAKI-1
U-251 = system: U-251
K562 = system: K562
CCRF-CEM = system: CCRF-CEM
UO-31 = system: UO-31
SW-620 = system: SW-620
ACHN = system: ACHN
EKVX = system: EKVX
KM-20L2 = system: KM-20L2
SR = system: SR
RXF 393 = system: RXF 393

Measured: GI50

Clc1cc2nc[nH]c2cc1Cl
inactive: OVCAR-4 > 100 µM | DMS-273 > 100 µM | OVCAR-8 > 100 µM | COLO 205 > 100 µM | 786-0 > 100 µM | IGROV-1 > 100 µM | CAKI-1 > 100 µM | U-251 > 100 µM | K562 > 100 µM | CCRF-CEM > 100 µM | UO-31 48.2 µM | SW-620 > 100 µM | ACHN > 100 µM | EKVX > 100 µM

CCCCC(C(=O)CCC(=O)Nc1ccc(Cl)cc1)C(=O)C(C)C (centres undefined)
inactive: OVCAR-4 > 100 µM | DMS-273 > 100 µM | OVCAR-8 > 100 µM | COLO 205 > 100 µM | 786-0 > 100 µM | IGROV-1 > 100 µM | CAKI-1 > 100 µM | U-251 > 100 µM | K562 25.1 µM | CCRF-CEM > 100 µM | KM-20L2 > 100 µM | UO-31 > 100 µM | SR > 100 µM | SW-620 > 100 µM | RXF 393 > 100 µM | ACHN > 100 µM | EKVX > 100 µM

O=S1(=O)OCCOS(=O)(=O)C1I
inactive: OVCAR-4 > 100 µM | DMS-273 > 100 µM | OVCAR-8 > 100 µM | COLO 205 > 100 µM | 786-0 71 µM | IGROV-1 > 100 µM | CAKI-1 > 100 µM | K562 > 100 µM | CCRF-CEM 86.9 µM | UO-31 48.5 µM | SR 91.8 µM | SW-620 > 100 µM | EKVX > 100 µM

CC1CC(=O)Nc2ccc(Cl)cc2N1C(=O)CN1CCC(CCCCN(C)C)CC1 (centres undefined)
inactive: OVCAR-4 > 100 µM | DMS-273 > 100 µM | OVCAR-8 > 100 µM | COLO 205 > 100 µM | 786-0 > 100 µM | IGROV-1 > 100 µM | CAKI-1 > 100 µM | U-251 > 100 µM | K562 80 µM | CCRF-CEM > 100 µM | KM-20L2 43.2 µM | UO-31 > 100 µM | SR > 100 µM | SW-620 > 100 µM | ACHN > 100 µM

Cc1ccc(-c2nc3ccccc3c(=O)n2NCC2(O)OCC(O)C(O)C2O)cc1 (centres undefined)
inactive: OVCAR-4 > 100 µM | DMS-273 > 100 µM | OVCAR-8 > 100 µM | COLO 205 > 100 µM | 786-0 > 100 µM | CAKI-1 > 100 µM | U-251 > 100 µM | K562 > 100 µM | CCRF-CEM > 100 µM | KM-20L2 > 100 µM | UO-31 > 100 µM | SR > 100 µM | SW-620 > 100 µM | RXF 393 > 100 µM | ACHN > 100 µM | EKVX > 100 µM

CCN(CC)CC(C(=O)Nc1c(C)cccc1C)/C(C)=N\NC(=S)NN (centres undefined)
inactive: DMS-273 > 100 µM | OVCAR-8 > 100 µM | COLO 205 > 100 µM | 786-0 > 100 µM | IGROV-1 > 100 µM | U-251 > 100 µM | K562 > 100 µM | CCRF-CEM > 100 µM | KM-20L2 > 100 µM | UO-31 > 100 µM | SW-620 > 100 µM | RXF 393 > 100 µM | ACHN > 100 µM | EKVX > 100 µM

COC(=O)c1c(OC)cccc1C(=O)O
inactive: OVCAR-4 > 100 µM | DMS-273 > 100 µM | OVCAR-8 > 100 µM | COLO 205 > 100 µM | 786-0 > 100 µM | IGROV-1 > 100 µM | CAKI-1 > 100 µM | U-251 > 100 µM | K562 > 100 µM | CCRF-CEM > 100 µM | KM-20L2 > 100 µM | UO-31 > 100 µM | SW-620 > 100 µM | RXF 393 > 100 µM | ACHN > 100 µM | EKVX > 100 µM

N#CC(C#N)=C1NN=C(Cl)c2ccccc21
inactive: OVCAR-4 > 100 µM | DMS-273 > 100 µM | OVCAR-8 > 100 µM | COLO 205 > 100 µM | 786-0 > 100 µM | IGROV-1 > 100 µM | CAKI-1 > 100 µM | U-251 96.4 µM | K562 > 100 µM | CCRF-CEM 88.1 µM | KM-20L2 > 100 µM | UO-31 50.7 µM | SW-620 > 100 µM | RXF 393 > 100 µM | ACHN > 100 µM | EKVX > 100 µM

Clc1ccc(/C=C/c2csnn2)cc1
inactive: OVCAR-4 > 100 µM | DMS-273 > 100 µM | OVCAR-8 > 100 µM | COLO 205 > 100 µM | 786-0 > 100 µM | IGROV-1 > 100 µM | CAKI-1 > 100 µM | U-251 > 100 µM | K562 > 100 µM | CCRF-CEM > 100 µM | KM-20L2 > 100 µM | UO-31 > 100 µM | SW-620 > 100 µM | RXF 393 > 100 µM | ACHN > 100 µM | EKVX > 100 µM

Cc1cc2c(=O)cc(-c3ccc(C(=O)O)cc3)oc2c(C(N)=O)c1C
inactive: OVCAR-4 > 100 µM | DMS-273 > 100 µM | OVCAR-8 > 100 µM | COLO 205 > 100 µM | 786-0 > 100 µM | IGROV-1 > 100 µM | U-251 > 100 µM | K562 > 100 µM | CCRF-CEM > 100 µM | KM-20L2 > 100 µM | UO-31 > 100 µM | SW-620 > 100 µM | ACHN > 100 µM | EKVX > 100 µM

COC(=O)C1CC(OC(C)=O)C=C2C(=O)CCC21 (centres undefined)
inactive: OVCAR-4 19 µM | DMS-273 17.2 µM | OVCAR-8 18.5 µM | COLO 205 18.7 µM | 786-0 18.5 µM | IGROV-1 27.2 µM | CAKI-1 27 µM | U-251 28.3 µM | K562 15.9 µM | CCRF-CEM 16.8 µM | KM-20L2 30.2 µM | UO-31 27.2 µM | SR 14 µM | SW-620 20.3 µM | RXF 393 14.8 µM | ACHN 20.2 µM

COC(=O)C(CC=O)C(=O)C(=O)Nc1cccc(C(F)(F)F)c1 (centres undefined)
inactive: OVCAR-4 > 100 µM | OVCAR-8 > 100 µM | 786-0 > 100 µM | IGROV-1 > 100 µM | CAKI-1 > 100 µM | U-251 > 100 µM | K562 > 100 µM | CCRF-CEM > 100 µM | KM-20L2 > 100 µM | UO-31 > 100 µM | SR > 100 µM | SW-620 > 100 µM | RXF 393 > 100 µM | ACHN > 100 µM | EKVX > 100 µM

CCC(=O)N1C(=O)OCC1C(C)C (centres undefined)
inactive: OVCAR-4 > 100 µM | DMS-273 > 100 µM | OVCAR-8 > 100 µM | COLO 205 > 100 µM | 786-0 > 100 µM | IGROV-1 > 100 µM | CAKI-1 > 100 µM | U-251 > 100 µM | K562 > 100 µM | CCRF-CEM > 100 µM | KM-20L2 > 100 µM | UO-31 > 100 µM | SW-620 > 100 µM | RXF 393 > 100 µM | ACHN > 100 µM | EKVX > 100 µM

C[n+]1c2ccccc2c(CNc2ccc(S(=O)(=O)N=C(N)N)cc2)c2ccccc21
inactive: OVCAR-4 29.1 µM | DMS-273 2.94 µM | OVCAR-8 9.66 µM | 786-0 6.84 µM | IGROV-1 16.3 µM | CAKI-1 1.72 µM | U-251 5.14 µM | K562 6.78 µM | CCRF-CEM 1.45 µM | KM-20L2 13.6 µM | UO-31 14.4 µM | SW-620 6.95 µM | RXF 393 15.1 µM | ACHN 6.95 µM | EKVX 21 µM

COC1=CC(C)C2C[C@H]3O[C@H](O)C[C@H]4C(C)C(=O)C(O)C([C@@]2(C)C1=O)[C@@]34C (some centres undefined)
inactive: DMS-273 > 100 µM | OVCAR-8 > 100 µM | COLO 205 > 100 µM | 786-0 > 100 µM | IGROV-1 > 100 µM | CAKI-1 > 100 µM | U-251 > 10 µM | K562 > 100 µM | CCRF-CEM > 100 µM | UO-31 > 100 µM | SW-620 > 100 µM | RXF 393 > 100 µM | ACHN > 100 µM | EKVX > 100 µM

COc1ccc2c3ccc4c(c3n(C)c2c1)C(=O)c1ccccc1C4=O
inactive: OVCAR-4 17.8 µM | DMS-273 > 100 µM | OVCAR-8 36.9 µM | COLO 205 75.2 µM | 786-0 13.4 µM | IGROV-1 > 100 µM | U-251 63.8 µM | K562 > 100 µM | CCRF-CEM > 100 µM | KM-20L2 39.8 µM | UO-31 > 100 µM | SR > 100 µM | SW-620 80.2 µM | RXF 393 > 100 µM | ACHN 51.3 µM | EKVX > 100 µM

OCC(O)C(O)C(O)c1nnn[nH]1 (centres undefined)
inactive: OVCAR-4 > 100 µM | DMS-273 > 100 µM | OVCAR-8 > 100 µM | COLO 205 > 100 µM | 786-0 > 100 µM | IGROV-1 > 100 µM | CAKI-1 > 100 µM | U-251 > 100 µM | K562 > 100 µM | CCRF-CEM > 100 µM | UO-31 > 100 µM | SR > 100 µM | SW-620 > 100 µM | ACHN > 100 µM | EKVX > 100 µM

COc1cc(/C=C(\C#N)C(=O)c2ccccc2)cc(OC)c1OC
inactive: OVCAR-4 > 100 µM | DMS-273 > 100 µM | OVCAR-8 > 100 µM | COLO 205 > 100 µM | 786-0 > 100 µM | CAKI-1 > 100 µM | U-251 > 100 µM | K562 > 100 µM | CCRF-CEM > 100 µM | KM-20L2 > 100 µM | UO-31 > 100 µM | SR > 100 µM | SW-620 > 100 µM | RXF 393 29.6 µM | ACHN > 100 µM | EKVX > 100 µM

Reference: ChEMBL document CHEMBL1201862, “PubChem BioAssay data set” (2004)
